Data published in patent US20230220331A1, “TEMPORARY TREATMENT MEDIUM, TREATMENT KIT, EMBRYOGENESIS ARREST INHIBITOR, EMBRYOGENESIS ARREST INHIBITORY METHOD, DEVELOPMENTAL ENGINEERING PRODUCT PREPARATION METHOD, TRANSPLANTATION METHOD, THERAPEUTIC METHOD, AND DEVELOPMENTAL ENGINEERING PRODUCT” (priority 2020, published 2023).

Tests used:
[1] = system: inbred rat F344 embryos; assay: Development to blastocyst after two electroporations (Treatment Example 5); format: cell-based; settings: treated before and after electroporation
Experimental: (§1) 1. At least 3 hours before TAKE, 5 drops of Y-27632-added KSOM AA medium (Y-27632 final concentration 10 μM, an example of the “temporary treatment medium” of this example) were placed on a 35 mm Petri dish and drops covered with paraffin oil.
(§2) 2. Pronuclear stage embryos were collected, placed in Y-27632-added KSOM AA medium, and cultured for about 30 minutes to 1 hour (temporary treatment).
(§3) 3. After that, the first TAKE was performed.
(§4) 4. After TAKE, the embryos were placed in Y-27632-added KSOM AA medium and cultured under 37° C., 5% CO2, and 5% O2 conditions for 30 minutes and more and up to 12 hours (temporary treatment).
(§5) 5. Then, they were placed in Y-27632-free KSOM AA medium (an example of the “normal medium” of this example), and cultured under 37° C., 5% CO2, and 5% O2 conditions until the second TAKE.
(§6) 6. The next day, the embryos that had become two cells were separated, and about 20 to 22 hours after egg collection, they were placed in Y-27632-added KSOM AA medium again and cultured for about 30 minutes to 1 hour (temporary treatment).
(§7) 7. After that, the second TAKE was performed.
8. […]
In these figures, the development rate of the two-cell stage was calculated as the ratio of the two-cell stage embryo to the pronuclear stage embryo, and the development rate of the blastocyst stage was calculated as the ratio of the blastocyst stage to the two-cell stage embryo.

[2] = system: pronuclear stage embryos of F344 rat; assay: Flox rat knock-in by 2STEP electroporation with high concentration ssODN (Treatment Example 6); format: cell-based; settings: ssODN 800 ng/μL, 14 transfer pulses
Experimental: as §1, §2, §3, §4, §5, §6, §7
8. After the second TAKE, the embryos were placed in Y-27632-added KSOM AA medium and cultured for about 30 minutes to 1 hour (temporary treatment).
9. Then, they were transferred to mR1ECM medium (an example of “normal medium” of this example). […]

[3] = system: immunodeficient mouse (nude) pronuclear stage embryos, BALB/c-nu; assay: Multi-gene knockout (BBOX1, IL2RG) in nude mouse embryos (Treatment Example 7); format: cell-based
Experimental: 1. Up to 3 hours before TAKE, Y-27632-added mWM medium (Y-27632 final concentration 10 μM, an example of the “temporary treatment medium” of this example) and Y-27632-free mWM medium (an example of “normal medium” of this example) were dropped into 35 mm Petri dishes by 5 drops, respectively, to prepare the drops covered with paraffin oil.
2. Pronuclear stage embryos were collected from the drops, placed in Y-27632-added mWM medium, and cultured for about 30 minutes to 1 hour (temporary treatment).
3. After that, TAKE was performed.
4. After TAKE, the embryos were placed in Y-27632-added mWM medium and cultured for about 30 minutes to 1 hour (temporary treatment).
5. Then, the embryos were placed in Y-free mWM medium and cultured at 37° C. under 5% CO2 and (5% O2) conditions until the next day. If necessary, culture was continued or embryo transfer was performed in Y-27632-free mWM medium.
In this production example, a multi-gene KO mouse was prepared by using an immunodeficient mouse (nude, a nude mouse) embryo.
Specifically, a male of BALB/c-nu/nu and a female of BALB/c-nu/+ treated with ovarian hyperstimulation were crossed, and a pronuclear stage embryos were collected. The guide RNAs (crRNA: tracrRNA), which are two for the BBOX1 gene and two for the IL2RG gene, are electroporated at about 100 ng/μL per guide RNA, totaling about 400 ng/μL, are electroporated with 14 transfer pulses, and, before and after the electroporation, the embryos were cultured in the temporary treatment medium of this example.

[4] = system: pronuclear stage embryos of inbred rats F344; assay: Generation of Flox inbred rats (individuals) by one-step method (Treatment Example 12); format: cell-based, rat; settings: F344, floxed p53 1STEP, high concentration, many pulses
Experimental: The pronuclear stage embryos of inbred rats similar to those of Treatment Example 6 according to Example 1 were knocked in by an electroporation method (1STEP method) by using a high concentration ssODN, and further individual preparations were performed. As in the above-mentioned treatment example 6, insertion of the LoxP that was not knocked in at the normal ssODN concentration and the number of transfer pulses was performed with the same temporary treatment as in the above-mentioned Example 1. Specifically, before and after electroporation, 1 hour of the temporary treatment, 24 hours of culture in the normal medium (waiting period), and 1 hour of the temporary treatment were performed. This made it possible to double the concentration of ssODN and the number of electroporations and to knocked in. Further, when the concentration of Cas9 was increased 5 times, Flox inbred rats were obtained by one electroporation.

[5] = system: frozen and thawed pronuclear stage and 2-cell stage embryos of rat Wistar-Imamichi; assay: Genome-edited individuals by frozen 1-2 cell TAKE of Wistar-Imamichi (Treatment Example 17); format: cell-based
Excerpt: Next, knock-outs by TAKE were also produced in the pronuclear stage (1 cell) and the 2-cell stage (2 cells) […] of the frozen and thawed inbred rat Wistar-Imamichi. The conditions at this time were that the gRNA concentration was a specified amount (1 time), the pulse was 7 times, and the reduction rate was 40%.

[6] = of 4 surviving and 3 stillborn newborns analysed

## C[C@@H](N)[C@H]1CC[C@H](C(=O)Nc2ccncc2)CC1 [Y-27632, trans-4-[(1R)-1-Aminoethyl]-N-4-pyrid inylcyclohexanecarboxamide]
[1]
  2-cell stage embryos developed until the blastocyst stage (proportion): 74 of 103
[1]; ratio of blastocysts to 2-cell embryos
  embryos developed to the blastocyst (%): 71.8%
[2]; F344, 2STEP, of 86 samples
  samples developed to blastocysts (PCR AMPLIFICATION): 67
[2]; F344 blastocysts, 2STEP
  Flox (proportion): 1/67
[3]; BALB/c nude embryos, 4 guide RNAs about 400 ng/μL, 14 transfer pulses, 63 embryos transplanted
  pups born: 16
[3]; [6]
  analysed newborns with mutations: 3
  analysed newborns with mutations in 2 genes: 1
[4]; 92 transplanted embryos
  NUMBER OF FLOX INDIVIDUALS / FLOX (2 SITES): 1/9
[4]; listed as +Y
  Flox individuals %: 11%
[4]; listed as Y
  Flox individuals %: 11.1%
[5]; 37 TAKE embryos, 1 recipient
  NUMBER OF KO INDIVIDUALS (Large Deletion): 2
[5]; 37 TAKE embryos, 1 recipient, 1x gRNA, 7 pulses, 40% reduction rate
  NUMBER OF NEWBORNS: 8
[5]; KO individuals / newborns analyzed
  KO rate (Large deletion) (%): (25%)
